Where a name gives a salt, the structure may show the parent alone.
Legend:
HUVEC sprouting [1] = test: Primary angiogenesis screen, HUVEC spheroid evaluation (EC sprouting); type: cell-based, human; details: HUVEC spheroids in collagen gel, VEGF-supplemented, 24 hours
Protocol: A test substance was selected for evaluation in angiogenesis screens. The test substance was synthesized or obtained as appropriate and stored at −20° C. in DMSO. Prior to use, the test substance was thawed and 5 mM of the substance was diluted to a 10 fold concentrated working solution (100 μM) in endothelial cell basal medium. The basal medium fraction was supplemented with 25 ng VEGF/100 μl for the stimulation of HUVEC sprouting.
The screening procedures were modified versions of those described by Korff and Augustin (J Cell Sci 112: 3249-58, 1999). By way of summary, spheroids were prepared by pipetting 400 human umbilical vein endothelial cells (HUVEC) into each well of nonadhesive 96-well plates. Prior to use the HUVEC were cultured according to the supplier's instructions (PromoCell, Heidelberg, Germany). The cells were allowed to aggregate overnight into spheroids (Korff and Augustin: J Cell Biol 143: 1341-52, 1998). After aggregation, 48 HUVEC spheriods were harvested. Each harvested spheroid was seeded in 900 μl of methocel-collagen solution and pipetted into an individual well of a 24-well plate to allow collagen gel polymerization.
(§1) Thirty (30) minutes after seeding, the test substance was added. The working dilution (10 fold concentration) was utilized, 100 μl was pipetted on top of the polymerized collagen gel in each well. The plates were then incubated at 37° C. for 24 hours. At the end of the incubation period the plates were fixed by adding 1 ml paraformaldehyde (10%) to each well.
The HUVEC spheriods were microscopically assayed for endothelial cell (EC) sprouting intensity. The degree of EC sprouting was classified into one of four groups by comparing the degree of sprouting to that observed in VEGF control cells. […] For exemplary results, see FIG. 1.

[2] = tested on: angiogenesis induced by vascular permeability factor/vascular endothelial growth factor; details: Basu S et al., Nat Med 2001; cited from earlier work
HUVEC sprouting [3] = test: 3D angiogenesis assay of stimulators (HUVEC sprouting alone, with VEGF, with PTK787/ZK222584); type: cell-based, human; details: for HUVEC sprouting, compounds alone, compared to VEGF-induced sprouting: without addition of VEGF, 24 hours, basal sprouting subtracted, FIG. 22
Protocol: The HUVEC monolayer was treated for 6 hours with the compounds then the induced transcriptional changes, when compared to untreated HUVEC, were determined. The compounds were tested according to their ability to induce sprouting without addition of VEGF, in combination with VEGF and together with the VEGFR-2 inhibitor PTK787/ZK222584 (1 μM).

[4] = tested on: NHDF (human dermal fibroblasts) scattering; test: NHDF spheroid evaluation (fibroblast scattering); type: cell-based; details: NHDF spheroids in collagen gel, no supplements, 24 hours
Protocol: Where the test compound was classified as an inhibitor or stimulator, a second screening process was performed. In the second screen, the test substance was thawed and 5 mM of the substance was diluted to a 10 fold concentrated working solution (100 μM) in endothelial cell basal medium. No supplements were used in the basal medium.
Instead of HUVEC, spheroids were prepared by pipetting 400 human dermal fibroblasts (NHDF) into each well of nonadhesive 96-well plates. Prior to use the NHDF were cultured according to the supplier's instructions (PromoCell, Heidelberg, Germany). The cells were allowed to aggregate overnight into spheroids (Korff and Augustin: J Cell Biol 143: 1341-52, 1998). After aggregation, 48 NHDF spheroids were harvested. Each of the harvested spheroids was seeded in 900 μl of methocel-collagen solution and pipetted into an individual well of a 24-well plate to allow collagen gel polymerization.
as §1
The NHDF spheroids were microscopically assayed for fibroblast scattering intensity. […] For exemplary results, see FIG. 1.

HDMEC = test: Cell proliferation assay (crystal violet), HDMEC; type: cell-based; details: 72 hours, OD 595 nm
Protocol: (§2) In order to further confirm the surprising results described above, the compounds were tested in a cell proliferation assay. Crystal violet was used to measure cell proliferation; this basic dye stains cell nuclei and provides a sensitive, rapid evaluation. Light absorption of unstained or destained cell layers is negligible, making it possible to perform cell number measurements in wells. Six cell types (HUVEC, HDMEC, SMC, Fibroblast, A375 and RENCA) were plated and treated with the compounds in a log2 titration for 72 hours. The optimal cell number for each cell type was determined and optical density (OD) was measured at 595 nm. Each data point was measured in quadruplicate. The assay was stopped after 72 hours and subsequently analyzed. The OD-value of the plated cells before addition of the compounds was subtracted from all OD-values obtained after treatment. The percentage in relation to control proliferation was then calculated. Negative values therefore represent a count of fewer cells than were plated. The IC50 is given below in Table 1. Results are shown as a percentage in relation to the control proliferation. The IC50 were calculated using GraphPad Prism software (GraphPad Software, Inc.). Perhexiline results are depicted graphically in FIGS. 4A-4C and Erythromycin results in FIGS. 5A-5C.

SMC = test: Cell proliferation assay (crystal violet), SMC; type: cell-based; details: 72 hours, OD 595 nm
Protocol: as §2

RENCA = test: Cell proliferation assay (crystal violet), RENCA; type: cell-based; details: 72 hours, OD 595 nm
Protocol: as §2

B16F10 cells = test: Cell viability of B16F10 cells; type: cell-based; details: Mus musculus, B16-F10; after 24 and 48 hours incubation
Protocol: A cell viability assay based on cellular reduction of resazurin to the fluorescent product resorufin was performed. Viable cells can metabolize and reduce the dye, whereas dead cells rapidly lose the capacity to do so, making the increase in fluorescence directly proportional to the number of viable cells. The tested compounds were added in a log2 titration and viable cells were analyzed 24 hours after treatment. The fluorescence was determined at an excitation wavelength of 560 nm and an emission wavelength of 590 nm. The percentage of viable cells in relation to the untreated control proliferation was calculated. […] Perhexiline results are depicted graphically in FIGS. 6A-6C and Erythromycin results in FIGS. 7A-7C.
Through the two aforementioned assays it was determined that RENCA cells are more sensitive when treated with Perhexiline than the other cell types in the proliferation assay and in the viability assay. Therefore, the B16F10 cells were subsequently tested. The B16F10 tumor model, like the RENCA model, is an orthotopic tumor model.

HUVEC = test: Cell proliferation assay (crystal violet), HUVEC; type: cell-based; details: Homo sapiens, 72 hours, OD 595 nm
Protocol: In order to further confirm the surprising results described above, the compounds were tested in a cell proliferation assay. Crystal violet was used to measure cell proliferation; this basic dye stains cell nuclei and provides a sensitive, rapid evaluation. Light absorption of unstained or destained cell layers is negligible, making it possible to perform cell number measurements in wells.
Six cell types (HUVEC, HDMEC, SMC, Fibroblast, A375 and RENCA) were plated and treated with the compounds in a log2 titration for 72 hours. The optimal cell number for each cell type was determined and optical density (OD) was measured at 595 nm. Each data point was measured in quadruplicate. The assay was stopped after 72 hours and subsequently analyzed.
The OD-value of the plated cells before addition of the compounds was subtracted from all OD-values obtained after treatment. The percentage in relation to control proliferation was then calculated. Negative values therefore represent a count of fewer cells than were plated. The IC50 is given below in Table 1. Results are shown as a percentage in relation to the control proliferation. The IC50 were calculated using GraphPad Prism software (GraphPad Software, Inc.). Perhexiline results are depicted graphically in FIGS. 4A-4C and Erythromycin results in FIGS. 5A-5C. […]

Fibroblast = test: Cell proliferation assay (crystal violet), Fibroblast; type: cell-based; details: 72 hours, OD 595 nm
Protocol: as §2

A375 = test: Cell proliferation assay (crystal violet), A375; type: cell-based; details: Homo sapiens, A-375, 72 hours, OD 595 nm
Protocol: as §2

[5] = tested on: tumor size and vessel density; test: Further studies with other CPT-1 inhibitors; details: CPT-1 inhibitors at 10 and 100 μm; FIGS. 37A-40
HUVEC sprouting [6] = test: Spheroid-based 3D angiogenesis assay (IC50, alone or with VEGFR-2 inhibitor); type: cell-based, human; details: determined in the spheroid-based 3D assay (FIG. 10); read-out: IC50 of the VEGFR-2 inhibitors
Source text: Therefore, the assay was applied to test compounds alone or in combination with a VEGFR-2 inhibitor to address changes in IC50. […] The VEGFR-2 inhibitor was applied at a concentration close to the IC50.

[7] = tested on: Alexander cells (PLC/PRF/5) subcutaneous tumor; test: Hepato-Cellular Carcinoma Model (HCC) in vivo study, subcutaneous Alexander cells; set-up: species or system NMRI nu/nu mice; details: subcutaneous Alexander cell tumors in mice, about 21 days of treatment; FIGS. 28-30
Protocol: Monolayers of Alexander cells can be grown in 85% Dulbecco's Modified Eagle's Medium (DMEM), 15% Fetal Bovine Serum (FBS), 4 mM L-glutamine, 100 units penicillinG/ml, and 100 μg of streptomycin-sulfate/ml. The cells can be cultured in a humidified atmosphere of 90% air and 10% carbon dioxide at 37° C. Media may preferably be changed every 4 days.
Six to eight week old female NMRI^−nu/nu mice could be utilized. The Alexander cells can be implanted in the left flank region of the mice, for example, by injecting 4×10^7 cells in 0.2 ml aliquots into the subcutaneous space of the left flank using a 29 G needle syringe. After inoculation the appearing subcutaneous tumours can be measured by callipering and multiplying the distances of all three dimensions.
Therapy can be initiated after the tumor size has reached a volume of approximately 100 mm^3 (day 1 of the study), and continue for about 21 days.
As shown, Group 1 would serve as control, where the animals would receive no further treatment after injection of Alexander cells.
After approximately 21 days of treatment, mice could be sacrificed and tumors collected and optionally stored appropriately at −80° C. For histological examination of the tumor vasculature, cryosections of the tissues (thickness of 5-10 μm) can be taken. For visualization of the blood vessels, immunohistochemical staining for CD 31 (PECAM-1) can be performed, and vessels counted microscopically using a defined magnification (×200).

Clc1ccc(CSC(Cn2ccnc2)c2ccc(Cl)cc2Cl)cc1 (racemic) [Sulconazole, (±)-1-[2.4-dichloro-b-[(p-chlorobenzyl)-thio]-phenethyl]imidazole mononitrate]
EC sprouting intensity compared with VEGF control (HUVEC sprouting [1]): angiogenesis stimulators

CC(C)C[C@H]1C(=O)N2CCC[C@H]2[C@]2(O)O[C@](NC(=O)[C@@H]3C=C4c5cccc6[nH]c(Br)c(c56)C[C@H]4N(C)C3)(C(C)C)C(=O)N12 [Bromocriptine, Bromocriptine mesylate]
effect on angiogenesis (literature) [2]: prevent angiogenesis | HUVEC sprouting, compounds alone, compared to VEGF-induced sprouting (HUVEC sprouting [3]): stimulated sprouting in excess of the VEGF-induced sprouting | EC sprouting intensity compared with VEGF control (HUVEC sprouting [1]): angiogenesis stimulator

C#C[C@]1(O)CC[C@H]2[C@@H]3CCC4=Cc5oncc5C[C@]4(C)[C@H]3CC[C@@]21C [Danazol]
fibroblast scattering (invasion) effect [4]: no fibroblast invasion effect | EC sprouting intensity compared with VEGF control (HUVEC sprouting [1]): increased sprouting stimulation

NCCc1ccc(O)c(O)c1 [Dopamine]
effect on angiogenesis (literature) [2]: prevent angiogenesis

Clc1ccc(COC(Cn2ccnc2)c2ccc(Cl)cc2Cl)cc1.O=[N+]([O-])O (centres unmarked) [Econazole, 1-[2-{(4-chloro-phenyl)methoxy}-2-(2,4-dichlorophenyl)ethyl]-1H-imidazole mononitrate]
EC sprouting intensity compared with VEGF control (HUVEC sprouting [1]): angiogenesis stimulators

CC[C@H]1OC(=O)[C@H](C)[C@@H](O[C@H]2C[C@@](C)(OC)[C@@H](O)[C@H](C)O2)[C@H](C)[C@@H](O[C@@H]2O[C@H](C)C[C@H](N(C)C)[C@H]2O)[C@](C)(O)C[C@@H](C)C(=O)[C@H](C)[C@@H](O)[C@]1(C)O [Erythromycin]
IC50 (HDMEC): ~100 µM | fibroblast scattering (invasion) effect [4]: no fibroblast invasion effect | IC50 (SMC): > 100 µM | IC50 (RENCA): 56 µM | IC50 (B16F10 cells): 10 µM | EC sprouting intensity compared with VEGF control (HUVEC sprouting [1]): sprouting inhibition | IC50 (HUVEC): > 100 µM | IC50 (Fibroblast): > 100 µM | IC50 (A375): > 100 µM

CCc1cc(Cl)c(OC)c(C(=O)NC[C@@H]2CCCN2CC)c1O [Eticlopride]
effect on angiogenesis (literature) [2]: not effect on angiogenesis | HUVEC sprouting, compounds alone, compared to VEGF-induced sprouting (HUVEC sprouting [3]): stimulated sprouting in excess of the VEGF-induced sprouting

CCOC(=O)[C@@]1(CCCCCCOc2ccc(Cl)cc2)CO1 [Etomoxir]
effects on tumor size and vessel density (as seen with Perhexiline) [5]: not seen

CCN(CC)C(=O)N[C@H]1C=C2c3cccc4[nH]cc(c34)C[C@H]2N(C)C1 [Lisuride (S)(−)]
fibroblast scattering (invasion) effect [4]: no fibroblast invasion effect | EC sprouting intensity compared with VEGF control (HUVEC sprouting [1]): increased sprouting stimulation

CC(C)(COP(=O)(O)OP(=O)(O)OC[C@H]1O[C@@H](n2cnc3c(N)ncnc32)[C@H](O)[C@@H]1OP(=O)(O)O)[C@@H](O)C(=O)NCCC(=O)NCCSC(=O)CC(=O)O [Malonyl-CoA]
effects on tumor size and vessel density (as seen with Perhexiline) [5]: not seen

Clc1ccc(COC(Cn2ccnc2)c2ccc(Cl)cc2Cl)c(Cl)c1 (centres unmarked) [Miconazole]
fibroblast scattering (invasion) effect [4]: no fibroblast invasion effect | EC sprouting intensity compared with VEGF control (HUVEC sprouting [1]): increased sprouting stimulation

Clc1ccc(Nc2nnc(Cc3ccncc3)c3ccccc23)cc1 [PTK787/ZK222584]
IC50 (HUVEC sprouting [6]): 0.1 µM | VEGF-induced sprouting (HUVEC sprouting [3]; at a concentration of 1 μM): completely prevents VEGF-induced sprouting | tumor growth compared to control [7]: reduced

COc1ccc(CN2CCNCC2)c(OC)c1OC [Trimetazidine dihydrochloride]
effects on tumor size and vessel density (as seen with Perhexiline) [5]: not seen

— patent US20070142433A1, “Angiogenesis-affecting compounds and methods of use thereof” (priority 2004, published 2007)
